Measured values published in ChEMBL document CHEMBL3751764, “Synthesis and in vitro antiproliferative activity of novel pyrazolo[3,4-d]pyrimidine derivatives” (Medchemcomm, 2015).

Tests used:
MCF7 = assay: Cytotoxicity against human MCF7 cells after 72 hrs by SRB assay; format: functional, cell-based; conditions: MCF7, 72 h
[1] = Cytotoxicity against human HCT15 cells after 72 hrs by SRB assay; format: functional; conditions: HCT-15, 72 h
[2] = Cytotoxicity against human NCI-ADR-RES cells after 72 hrs by SRB assay; format: functional
NCI-H226 = assay: Cytotoxicity against human NCI-H226 cells after 72 hrs by SRB assay; format: functional; conditions: NCI-H226, 72 h
SK-MEL-28 = assay: Cytotoxicity against human SK-MEL-28 cells after 72 hrs by SRB assay; format: functional; conditions: SK-MEL-28, 72 h
[3] = Cytotoxicity against human SNB75 cells after 72 hrs by SRB assay; format: functional; conditions: SNB-75, 72 h
[4] = Cytotoxicity against human PC3 cells after 72 hrs by SRB assay; format: functional; conditions: PC-3, 72 h
T47D = assay: Cytotoxicity against human T47D cells after 72 hrs by SRB assay; format: functional
[5] = Cytotoxicity against human SF539 cells after 72 hrs by SRB assay; format: functional; conditions: SF-539, 72 h
[6] = read-out: LC50 (the source's name)

## O=C(NC1CCCCC1)c1ccc(Nc2ncnc3c2cnn3-c2ccccc2)cc1
MCF7
  GI50: 74.1 µM
  LC50: > 100 µM
  TGI: > 100 µM
[1]
  GI50: 99.3 µM
  TGI: > 100 µM
[1]; [6]
  CC50: > 100 µM
[2]
  GI50: 7.06 µM
  TGI: > 100 µM
[2]; [6]
  CC50: > 100 µM
NCI-H226
  GI50: 3.35 µM
  TGI: 21.5 µM
NCI-H226; [6]
  CC50: > 100 µM
SK-MEL-28
  GI50: 3.79 µM
  TGI: > 100 µM
SK-MEL-28; [6]
  CC50: > 100 µM
[3]
  GI50: 1.71 µM
  TGI: 5.4 µM
[3]; [6]
  CC50: 35.9 µM
[4]
  GI50: 11.8 µM
  TGI: 44.8 µM
[4]; [6]
  CC50: > 100 µM
T47D
  GI50: 20.2 µM
  TGI: > 100 µM
T47D; [6]
  CC50: > 100 µM
[5]
  GI50: 3.81 µM
  TGI: 17.1 µM
[5]; [6]
  CC50: 49 µM
